In ChEMBL document CHEMBL1208699, “BACE-1 hydroxyethylamine inhibitors using novel edge-to-face interaction with Arg-296” (Bioorg Med Chem Lett, 2010):

Legend:
Assay type in all cases: ADME, organism-based
Parameters in all cases: dose 1 mg/kg, route intravenous
[1] = Half life in rat at 1 mg/kg, iv; details: in vivo
[2] = Volume of distribution at steady state in rat at 1 mg/kg, iv; details: in vivo, read-out: Vdss
[3] = Blood clearance in rat at 1 mg/kg, iv; details: whole blood

- half-life [1]: 42 min
- Vd [2]: 9.3 L/kg
- clearance [3]: 76 mL/min/kg
SMILES: CS(=O)(=O)N(c1ccccc1)c1cc(C(=O)N[C@@H](Cc2ccccc2)[C@H](O)CNCc2cccc(C(F)(F)F)c2)cc(C2CCCC2)c1
